The results in this text go back to publication PMC8429736, “Pharmacological characterization of mutant huntingtin aggregate-directed PET imaging tracer candidates” (Scientific Reports, 2021).

Where only a bound is given, the exact number is not on record here.

Assay [1] concerns mHTT aggregates in R6/2 mice brain sections. The experiment in a line: In vitro ARG, R6/2 mouse brain sections. Format: binding. Conditions: 4-, 8- and 12-week-old R6/2 mice. Here is the method:
Twenty µm-thick sections were prepared from brains of disease mouse models and WT mice or human post-mortem brain samples by using a cryostat, mounted on superfrost slides and stored at -80 °C for a maximum of 2 weeks. On the day of the experiment, slides were adapted to room temperature for 30 min and then equilibrated by immersion into assay buffer (50 mM Tris–HCl pH 7.4; 120 mM NaCl; 5 mM KCl; 2 mM CaCl2; 1 mM MgCl2) for 20 min at room temperature.
Radioligand solutions were prepared in assay buffer. Optimal radioligand concentrations were determined in advance based on signal-to-background ratio obtained in mouse or human brain tissue. The solutions were mixed in a Coplin jar (Sigma, S5516-6EA) by gently shaking at 175 rpm for 10 min at room temperature. Sections were incubated by immersion into assay buffer containing either only radioligand (total binding or TB) or radioligand plus 10 µM of unlabeled compound (non-specific binding or NSB) for 60 min at room temperature. Afterwards slides were washed three times for 10 min with ice-cold washing buffer (50 mM Tris–HCl (pH 7.4)) at 4 °C and dipped for three seconds in ice-cold distilled water to remove buffer salts. […]

The test system of assay [2] is mHTT aggregates in zQ175 brain homogenates. The experiment in a line: RAFTA with zQ175 brain homogenates. Format: binding, mouse. Here is the method: For RAFTA and MSD assays, mouse brains were transferred to lysis tubes and individually homogenized 1:3 (w/v) in brain lysis buffer (10 mM Tris pH 7.4, 800 mM NaCl, 1 mM EDTA, 1 × Protease inhibitor, 10% Sucrose, 0.5% Triton X-100, Benzonase (1:1000)) using a pre-cooled MP FastPrep homogenizer (3 × 30 s, 6.0 m/sec). Crude homogenates were transferred to LoBind reaction tubes (Eppendorf) and centrifuged at 15,700×g for 10 min at 4 °C. The supernatant was collected, and the pellet fraction was resuspended in brain lysis buffer. Generally, a minimum of three whole brains were lysed and fractions were pooled after homogenization to reduce assay variability due to inter-animal variability.
The total protein concentration of samples was determined by BCA assay (ThermoFisher Scientific, #23227), according to standard procedures and protein concentrations were adjusted to 5–10 mg/mL in brain lysis buffer. […]
For RAFTA analysis, frozen mouse brain homogenates were thawed on the day of the experiment and diluted with assay buffer (50 mM Tris pH 8.0; 150 mM NaCl) to a concentration of 500 µg/mL total protein. […] In experiments where non-specific binding (NSB) was determined, the incubation medium contained 5 µM of non-labeled (cold) CHDI-180, which was added prior to the addition of radioligand and incubated for 20 min at room temperature. […]

Assay [3] deals with beta amyloid/tau aggregates in post-mortem AD patient brain homogenates. The experiment in a line: ADbh RBA competition format. Format: binding, human. Conditions: radioligand 4; compound 1 µM. As for the experimental part: For RBA in vitro binding assays, brain tissue was sliced (50 µm), weighed and homogenized in PBS (Gibco, 14190-94), 0.1% BSA with a glass pestle (10 strokes) at a concentration of 12–15 mg wet tissue per mL buffer. The crude homogenate concentration was then adjusted to 10 mg/mL (wet tissue) and stored as single-use aliquots at -80 °C.
RBA experiments using Alzheimer’s disease brain homogenates (ADbh RBA) followed the same assay principle as the RBA with recombinant HTT protein, using 0.68 mg/mL homogenate (100 µg per well with 150 µL assay volume) in assay buffer PBS, 0.01% Pluronic F127 (Sigma. P2443) and 1% DMSO after compound addition. […] Incubation at room temperature was conducted for 20 min after compound addition and for 5 h after radioligand addition. For the competition format, raw cpm were normalized towards assay controls as before, to obtain inhibition between 0 and 100%. For saturation binding, raw cpm were converted into nM as before, using a calibration line of total added radioligand, and normalized to mg of added homogenate to finally obtain pmol/mg.

`COc1ccc(COc2ccc3oc(-c4ccc(=O)n(C)n4)nc3c2)nc1` [CHDI-180]: the “specific binding to STR, CTX and HPC with age” value in assay [1] was “age-dependent increase in specific binding”. Also, the “signal in pelleted material vs age-matched WT mice” value in assay [2] (3 nM radioligand, cortices, striata or hippocampi of 9-month-old HET zQ175) was “> tenfold”. For the same compound, in assay [2] (3-, 6-, 9-, 12-month-old HOM zQ175), the “binding in brain homogenates with age” value is recorded as “age-dependent increase”. In assay [3], the “inhibition at 1 µM” value is reported as ~ 50%.
